Experiments:
[1] = target: complement component C3b; conditions: Isenman, 1983; read-out: Kd of ANS binding to complement component C3b; cited from earlier work
[2] = target: T1, u-PAR (Homo sapiens, UniProt Q03405); assay: fluorescence titration of u-PAR with ANS (Scatchard); type: binding; conditions: intact u-PAR
T1 construct: made in house; host or cells: Chinese hamster ovary (CHO) cells, conditioned media
Protocol: ANS titration. The stoichiometry and affinity of ANS binding to u-PAR was determined by titrating fixed concentrations of u-PAR with ANS up to a concentration of 100 μM. The observed fluorescence intensities were corrected for the dilution effect of the added ANS, the low background fluorescence of ANS in buffer and for the inner filter effect of the varying concentration of ANS. The latter was performed using the relationship
where ε386 is the molar extinction coefficient of ANS at half the path length of the fluorescence cuvette, ANSo is the total ANS concentration, and Fobs and Fcorr are the observed and corrected fluorescence intensities. The concentration of bound ANS was determined from the relationship
where Fmax is the theoretical fluorescence of a molar solution if all were bound to u-PAR. This parameter was calculated by titration of a protein concentration sufficiently high to ensure that essentially all added ANS is bound in the initial linear part of the binding curve. The data generated in this way were analyzed by the method of Scatchard.

[3] = target: apohemoglobin; conditions: Stryer, 1965; read-out: Kd of ANS binding to apohemoglobin; cited from earlier work
[4] = target: T1, u-PAR; assay: protease cleavage of u-PAR monitored by ANS fluorescence; type: biochemical
Protocol: Fluorescence measurements. […] All fluorescence measurements were made using 2 μM u-PAR and 10 μM ANS in PBS at 25° C. unless otherwise stated.

T1 sequence (Q03405 23-299): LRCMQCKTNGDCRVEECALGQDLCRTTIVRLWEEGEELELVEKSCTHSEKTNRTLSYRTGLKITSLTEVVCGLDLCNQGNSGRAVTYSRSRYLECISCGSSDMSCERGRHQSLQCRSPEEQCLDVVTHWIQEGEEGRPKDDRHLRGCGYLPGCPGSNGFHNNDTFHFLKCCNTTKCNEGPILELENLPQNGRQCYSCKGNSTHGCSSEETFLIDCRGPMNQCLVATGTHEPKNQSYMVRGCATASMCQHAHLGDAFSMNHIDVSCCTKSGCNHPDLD

Compound	Kd [1]	enhancement of ANS fluorescence intensity on binding to u-PAR [2]	stoichiometry of ANS binding [2]	Kd ([2]; PBS, 25° C., read-out: dissociation constant of ANS binding to u-PAR)	Kd [3]	reduction in the ANS fluorescence after cleavage of intact u-PAR [4]
O=S(=O)(O)c1cccc2cccc(Nc3ccccc3)c12 [ANS, 8-anilino-1-naphthalene sulfonic acid]	40 µM	> 10 fold	1.09±0.17 moles/mole u-PAR	33.8 ± 3.2 µM	55 µM	–
chymotrypsin	–	–	–	–	–	75%
